In one test the test system is hMPV-GFP virus. The test is described as follows: microbe, parasite or virus in culture. The format is cell-based, human metapneumovirus. Summed up:
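Antiviral IC50 was derived from imaging counts of GFP-expressing cells, with CC50 from a same-well CellTiter-Glo read, both by 4-parameter logistic fitting. VERO cells plus hMPV-GFP (MOI 1.25) were exposed 48 h at 37 °C to 10-point 3-fold compound dilutions (typical final 40,300–2 nM).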

The test system of a further test is RSV-A2-GFP virus. Briefly: microbe, parasite or virus in culture. The format is cell-based, Human Respiratory Syncytial Virus. In a few lines:
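IC50 (GFP-expressing cell counts by Acumen imaging) and CC50 (same-well CellTiter-Glo) were obtained by 4-parameter logistic fitting. Compounds were tested in 10-point 3-fold series for 96 h at 37° C, 5% CO2. Thawed Calu-1 ARF cells were infected at MOI 1.2 with GFP-reporter RSV-A2 in 2% FBS DMEM.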

Where [1] appears, read: human metapneumovirus, Vero, 48 h, read-out: hMPV EC50, VERO cells infected with hMPV-GFP, 48 hrs, GFP-expressing cells counted.
The mark [2] stands for this setting: human respiratory syncytial virus, Calu-1, 96 h, read-out: RSV EC50, Calu-1 cells infected with RSV-A2-GFP, 96 hrs, GFP-expressing cells counted.
Setting [3] is: VERO cells infected with hMPV-GFP, 48 hrs, GFP-expressing cells counted, read-out: hMPV EC50.
Where [4] appears, read: Calu-1 cells infected with RSV-A2-GFP, 96 hrs, GFP-expressing cells counted, read-out: RSV EC50.

These results are taken from patent publication US12643882B2, “Inhibitors of human respiratory syncytial virus and metapneumovirus” (priority 2022, dated 2026).

Read-outs that look alike come from different tables or passages of the source.

Broadly, the EC50 is the concentration that produces a half-maximal response. `Cn1nc(-c2ncccn2)cc1C(=O)N1C[C@@H]2[C@H](C1)[C@H]2Oc1cc(C(C)(C)N)cc(-c2ccc(F)c(F)c2)n1` [Example 55, ((1R,5S,6s)-6-((4-(2-aminopropan-2-yl)-6-(3,4-difluorophenyl)pyridin-2-yl)oxy)-3-azabicyclo[3.1.0]hexan-3-yl)(1-methyl-3-(pyrimidin-2-yl)-1H-pyrazol-5-yl)methanone]: the EC50 in the test on hMPV-GFP virus (setting [1]) was above 100 nM; in the test with RSV-A2-GFP virus (setting [2]), below 10 nM.

With `Cn1nc(-c2ncccn2)cc1C(=O)N1C[C@@H]2[C@H](C1)[C@H]2Oc1cc(C(C)(C)N)cc(-c2ccc(F)c(Cl)c2)n1` [Example 56, ((1R,5S,6s)-6-((4-(2-aminopropan-2-yl)-6-(3-chloro-4-fluorophenyl)pyridin-2-yl)oxy)-3-azabicyclo[3.1.0]hexan-3-yl)(1-methyl-3-(pyrimidin-2-yl)-1H-pyrazol-5-yl)methanone], the EC50 is above 100 nM in the test with hMPV-GFP virus (setting [3]) and below 10 nM in the test on RSV-A2-GFP virus (setting [4]).

Take `Cn1nc(-c2ncccn2)cc1C(=O)N1C[C@@H]2[C@H](C1)[C@H]2Oc1cc(C(C)(C)N)cc(-c2ccc(F)cc2Cl)n1` [Example 57, ((1R,5S,6s)-6-((4-(2-aminopropan-2-yl)-6-(2-chloro-4-fluorophenyl)pyridin-2-yl)oxy)-3-azabicyclo[3.1.0]hexan-3-yl)(1-methyl-3-(pyrimidin-2-yl)-1H-pyrazol-5-yl)methanone]: the figures for the concentration giving a half-maximal response (EC50) with hMPV-GFP virus (setting [3]) and with RSV-A2-GFP virus (setting [4]) were above 100 nM and below 10 nM, respectively.

With `Cn1nc(-c2ncccn2)cc1C(=O)N1C[C@@H]2[C@H](C1)[C@H]2Oc1cc(C(C)(C)N)cc(-c2ccc(Cl)cc2)n1` [Example 58, ((1R,5S,6s)-6-((4-(2-aminopropan-2-yl)-6-(4-chlorophenyl)pyridin-2-yl)oxy)-3-azabicyclo[3.1.0]hexan-3-yl)(1-methyl-3-(pyrimidin-2-yl)-1H-pyrazol-5-yl)methanone], the values for the EC50 with hMPV-GFP virus (setting [3]) and in the test on RSV-A2-GFP virus (setting [4]) were 10 to 100 nM and below 10 nM, respectively.

Consider `Cn1nc(-c2ncccn2)cc1C(=O)N1C[C@@H]2[C@H](C1)[C@H]2Oc1cc(C(C)(C)N)cc(-c2ccc(C(F)(F)F)cc2)n1` [Example 59, ((1R,5S,6s)-6-((4-(2-aminopropan-2-yl)-6-(4-(trifluoromethyl)phenyl)pyridin-2-yl)oxy)-3-azabicyclo[3.1.0]hexan-3-yl)(1-methyl-3-(pyrimidin-2-yl)-1H-pyrazol-5-yl)methanone], for which the values for the EC50 in the test on hMPV-GFP virus (setting [3]) and in the test with RSV-A2-GFP virus (setting [4]) were 10 to 100 nM and below 10 nM, respectively.

For the molecule `Cn1nc(-c2ncccn2)cc1C(=O)N1C[C@@H]2[C@H](C1)[C@H]2Oc1cc(C(C)(C)N)cc(-n2ccc3c(F)cccc32)n1` [Example 60, ((1R,5S,6s)-6-((4-(2-aminopropan-2-yl)-6-(4-fluoro-1H-indol-1-yl)pyridin-2-yl)oxy)-3-azabicyclo[3.1.0]hexan-3-yl)(1-methyl-3-(pyrimidin-2-yl)-1H-pyrazol-5-yl)methanone], the EC50 was 10 to 100 nM in the test with hMPV-GFP virus (setting [1]) and below 10 nM in the test on RSV-A2-GFP virus (setting [2]).

Turning to `Cc1nn(-c2ncccn2)cc1C(=O)N1C[C@@H]2[C@H](C1)[C@H]2Oc1cc(C(C)(C)N)cc(-c2ccc(F)cc2)n1` [Example 61, ((1R,5S,6s)-6-((4-(2-aminopropan-2-yl)-6-(4-fluorophenyl)pyridin-2-yl)oxy)-3-azabicyclo[3.1.0]hexan-3-yl)(3-methyl-1-(pyrimidin-2-yl)-1H-pyrazol-4-yl)methanone], the results for the EC50 with hMPV-GFP virus (setting [1]) and with RSV-A2-GFP virus (setting [2]) were above 100 nM and below 10 nM, respectively.

Consider `COc1nn(-c2ncccn2)cc1C(=O)N1C[C@@H]2[C@H](C1)[C@H]2Oc1cc(C(C)(C)N)cc(-c2ccc(F)cc2)n1` [Example 62, ((1R,5S,6s)-6-((4-(2-aminopropan-2-yl)-6-(4-fluorophenyl)pyridin-2-yl)oxy)-3-azabicyclo[3.1.0]hexan-3-yl)(3-methoxy-1-(pyrimidin-2-yl)-1H-pyrazol-4-yl)methanone], for which the EC50 in the test on hMPV-GFP virus (setting [1]) is above 100 nM; with RSV-A2-GFP virus (setting [2]), below 10 nM.

With `CC(C)(N)c1cc(O[C@H]2[C@@H]3CN(C(=O)c4cnn(-c5ncccn5)c4)C[C@@H]32)nc(-c2ccc(F)cc2)c1` [Example 63, ((1R,5S,6s)-6-((4-(2-aminopropan-2-yl)-6-(4-fluorophenyl)pyridin-2-yl)oxy)-3-azabicyclo[3.1.0]hexan-3-yl)(1-(pyrimidin-2-yl)-1H-pyrazol-4-yl)methanone], the EC50 with hMPV-GFP virus (setting [3]) was above 100 nM; in the test on RSV-A2-GFP virus (setting [4]), below 10 nM.

Take `CCc1nn(-c2ncccn2)cc1C(=O)N1C[C@@H]2[C@H](C1)[C@H]2Oc1cc(C(C)(C)N)cc(-c2ccc(F)cc2)n1` [Example 64, ((1R,5S,6s)-6-((4-(2-aminopropan-2-yl)-6-(4-fluorophenyl)pyridin-2-yl)oxy)-3-azabicyclo[3.1.0]hexan-3-yl)(3-ethyl-1-(pyrimidin-2-yl)-1H-pyrazol-4-yl)methanone]: the half-maximal effective concentration (EC50) with hMPV-GFP virus (setting [3]) was above 100 nM; in the test on RSV-A2-GFP virus (setting [4]) it was below 10 nM.

For `CC(C)(N)c1cc(O[C@H]2[C@@H]3CN(C(=O)c4cn(-c5ncccn5)nc4C4CC4)C[C@@H]32)nc(-c2ccc(F)cc2)c1` [Example 65, ((1R,5S,6s)-6-((4-(2-aminopropan-2-yl)-6-(4-fluorophenyl)pyridin-2-yl)oxy)-3-azabicyclo[3.1.0]hexan-3-yl)(3-cyclopropyl-1-(pyrimidin-2-yl)-1H-pyrazol-4-yl)methanone], the EC50 with hMPV-GFP virus (setting [3]) is above 100 nM; in the test on RSV-A2-GFP virus (setting [4]), below 10 nM.

For `CC(C)(N)c1cc(O[C@H]2[C@@H]3CN(C(=O)c4cn(-c5ncccn5)nc4C(F)F)C[C@@H]32)nc(-c2ccc(F)cc2)c1` [Example 66, ((1R,5S,6s)-6-((4-(2-aminopropan-2-yl)-6-(4-fluorophenyl)pyridin-2-yl)oxy)-3-azabicyclo[3.1.0]hexan-3-yl)(3-(difluoromethyl)-1-(pyrimidin-2-yl)-1H-pyrazol-4-yl)methanone], the EC50 in the test on hMPV-GFP virus (setting [3]) was above 100 nM; with RSV-A2-GFP virus (setting [4]), below 10 nM.

For `CC(C)(N)c1cc(O[C@H]2[C@@H]3CN(C(=O)c4cn(-c5ncccn5)nc4C(F)(F)F)C[C@@H]32)nc(-c2ccc(F)cc2)c1` [Example 67, ((1R,5S,6s)-6-((4-(2-aminopropan-2-yl)-6-(4-fluorophenyl)pyridin-2-yl)oxy)-3-azabicyclo[3.1.0]hexan-3-yl)(1-(pyrimidin-2-yl)-3-(trifluoromethyl)-1H-pyrazol-4-yl)methanone], the EC50 was above 100 nM with hMPV-GFP virus (setting [3]) and below 10 nM in the test on RSV-A2-GFP virus (setting [4]).

As to `CCOc1nn(-c2ncccn2)cc1C(=O)N1C[C@@H]2[C@H](C1)[C@H]2Oc1cc(C(C)(C)N)cc(-c2ccc(F)cc2)n1` [Example 68, ((1R,5S,6s)-6-((4-(2-aminopropan-2-yl)-6-(4-fluorophenyl)pyridin-2-yl)oxy)-3-azabicyclo[3.1.0]hexan-3-yl)(3-ethoxy-1-(pyrimidin-2-yl)-1H-pyrazol-4-yl)methanone], the EC50 with hMPV-GFP virus (setting [3]) is above 100 nM; with RSV-A2-GFP virus (setting [4]), below 10 nM.

With `CC(C)(N)c1cc(O[C@H]2[C@@H]3CN(C(=O)c4cn(-c5ncccn5)nc4OC(F)F)C[C@@H]32)nc(-c2ccc(F)cc2)c1` [Example 69, ((1R,5S,6s)-6-((4-(2-aminopropan-2-yl)-6-(4-fluorophenyl)pyridin-2-yl)oxy)-3-azabicyclo[3.1.0]hexan-3-yl)(3-(difluoromethoxy)-1-(pyrimidin-2-yl)-1H-pyrazol-4-yl)methanone], the values for the EC50 in the test on hMPV-GFP virus (setting [3]) and with RSV-A2-GFP virus (setting [4]) were above 100 nM and below 10 nM, respectively.

Regarding `CC(C)(N)c1cc(O[C@H]2[C@@H]3CN(C(=O)c4cn(-c5ncccn5)nc4N)C[C@@H]32)nc(-c2ccc(F)cc2)c1` [Example 70, (3-amino-1-(pyrimidin-2-yl)-1H-pyrazol-4-yl)((1R,5S,6s)-6-((4-(2-aminopropan-2-yl)-6-(4-fluorophenyl)pyridin-2-yl)oxy)-3-azabicyclo[3.1.0]hexan-3-yl)methanone], the EC50 was above 100 nM in the test with hMPV-GFP virus (setting [3]) and below 10 nM in the test with RSV-A2-GFP virus (setting [4]).

Regarding `Cc1nn(-c2ncc(F)cn2)cc1C(=O)N1C[C@@H]2[C@H](C1)[C@H]2Oc1cc(C(C)(C)N)cc(-c2ccc(F)cc2)n1` [Example 71, ((1R,5S,6s)-6-((4-(2-aminopropan-2-yl)-6-(4-fluorophenyl)pyridin-2-yl)oxy)-3-azabicyclo[3.1.0]hexan-3-yl)(1-(5-fluoropyrimidin-2-yl)-3-methyl-1H-pyrazol-4-yl)methanone], the EC50 was above 100 nM with hMPV-GFP virus (setting [3]) and below 10 nM in the test on RSV-A2-GFP virus (setting [4]).

Consider `Cc1ccnc(-n2cc(C(=O)N3C[C@@H]4[C@H](C3)[C@H]4Oc3cc(C(C)(C)N)cc(-c4ccc(F)cc4)n3)c(C)n2)n1` [Example 72, ((1R,5S,6s)-6-((4-(2-aminopropan-2-yl)-6-(4-fluorophenyl)pyridin-2-yl)oxy)-3-azabicyclo[3.1.0]hexan-3-yl)(3-methyl-1-(4-methylpyrimidin-2-yl)-1H-pyrazol-4-yl)methanone], for which the EC50 was above 100 nM in the test with hMPV-GFP virus (setting [3]) and below 10 nM with RSV-A2-GFP virus (setting [4]).

On to `Cc1nn(-c2ncccn2)c(C)c1C(=O)N1C[C@@H]2[C@H](C1)[C@H]2Oc1cc(C(C)(C)N)cc(-c2ccc(F)cc2)n1` [Example 73, ((1R,5S,6s)-6-((4-(2-aminopropan-2-yl)-6-(4-fluorophenyl)pyridin-2-yl)oxy)-3-azabicyclo[3.1.0]hexan-3-yl)(3,5-dimethyl-1-(pyrimidin-2-yl)-1H-pyrazol-4-yl)methanone], for which the EC50 was above 100 nM in the test with hMPV-GFP virus (setting [3]) and below 10 nM in the test on RSV-A2-GFP virus (setting [4]).
